Paper PMC7394005, “Assessing the Selectivity of FXR, LXRs, CAR, and RORγ Pharmaceutical Ligands With Reporter Cell Lines” (Frontiers in Pharmacology, 2020)
Like-named read-outs stand apart in the source and are kept apart here.

Experiments:
Format in all cases: cell-based
[1] = target: T1, human FXR (Homo sapiens, UniProt Q96RI1); experiment: HG5LN GAL4-FXR reporter cell line, agonist mode (luciferase transactivation); conditions: NE = No effect; for EC50: HG5LN GAL4-FXR cells, tested alone
T1 construct: FXR (R193-Q486); expressed in transfected cells; host or cells: HG5LN (HeLa cells carrying the (GAL4RE)5-βGlob-Luc-SVNeo reporter)
T1 sequence (Q96RI1 193-486): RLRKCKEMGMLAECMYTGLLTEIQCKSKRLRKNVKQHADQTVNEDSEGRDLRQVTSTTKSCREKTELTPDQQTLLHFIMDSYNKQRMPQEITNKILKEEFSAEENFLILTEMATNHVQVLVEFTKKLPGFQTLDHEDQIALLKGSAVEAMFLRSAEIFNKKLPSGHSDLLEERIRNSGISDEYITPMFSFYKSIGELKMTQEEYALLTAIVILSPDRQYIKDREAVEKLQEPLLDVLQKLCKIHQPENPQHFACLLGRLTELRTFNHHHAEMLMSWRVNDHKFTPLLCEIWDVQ
Source text: (§1) To construct GAL4-NR chimeras, individual LBDs of human FXR (R193-Q486), LXRα (A187-E447), LXRβ (G199-E461), CAR (M76-S348), and RORγ (S97-K518) were amplified by PCR with primers containing XhoI and SacI restriction sites (FXR), XhoI and BamHI (LXRs, CAR, RORγ) and inserted in pSG5-GAL4(DBD)-puromycin plasmid. To construct GAL4-CAR (+ APYLT) (M76-S353), the five amino acids APYLT were inserted by overlap extension PCR between amino acids P270 and D271 of CAR.
(§2) To characterize the specificity of chemicals for human FXR, LXRα, LXRβ, CAR and RORγ, we established in a similar manner HG5LN FXR, LXRα, LXRβ, CAR WT, CAR (APYLT) and RORγ reporter cell lines. […] These cells were stably transfected by pSG5-GAL4 (DBD)-NRs (LBD)-puromycin plasmid and selected in presence of 0.5 µg/ml puromycin. […] From each HG5LN NR cells, 5 to 10 clones were chosen for their ligand inducibility of luciferase expression. […] The most inducible clones were expanded and rechecked for inducibility and aliquots were frozen at different passages. One clone per receptor was maintained in culture and used for ligand screening. HG5LN cells were cultured in Dulbecco’s modified Eagle’s medium (DMEM): Nutrient Mixture F-12 (DMEM/F-12) containing phenol red and 1 g/l glucose and supplemented with 5% fetal bovine serum, 100 units/ml of penicillin, 100 µg/ml of streptomycin and 1 mg/ml geneticin, in 5% CO2 humidified atmosphere at 37°C. Stably transfected cell lines derived from HG5LN cells were cultured in the same culture medium supplemented with 0.5 µg/ml puromycin.
(§3) Individual reporter cell lines were seeded at a density of 40,000 cells per well in 96-well white opaque tissue culture plates (Greiner CellStar) in Dulbecco’s Modified Eagle Medium: Nutrient Mixture F-12 (DMEM/F-12) without phenol red and 1 g/l glucose and supplemented with 5% stripped fetal bovine serum, 100 units/ml of penicillin, 100 µg/ml of streptomycin (test medium). Chemicals to be tested were added 24h later, and cells were incubated at 37°C for 16h. Experiments were performed in quadruplicates. At the end of the incubation period, culture medium was replaced with test medium containing 0.3 mM luciferin solution. Luciferase activity was measured for 2s in intact living cells after 10 min stabilization using a Micro Beta Wallac luminometer (PerkinElmer). EC50 values were calculated using GraphPad Prism (GraphPad Software Inc).
(§4) Chemicals tested for agonism on FXR, LXRs, CAR (+ APYLT), PXR, and antagonism on CAR and RORγ were tested alone, without addition of any other ligand.
(§5) In the transactivation assay, each compound was tested at various concentrations in three independent experiments at least. For each experiment, tests were performed in quadruplicates for each concentration, and data are expressed by means values with standard deviations. Individual agonist dose–response curves, in the absence and presence of antagonist, were fitted using the sigmoid dose-response function of a graphics and statistics software program (GraphPad Prism, version 5.0). EC50 (effective concentration for half-maximal luciferase activity) and IC50 (half-maximal inhibitory concentration) values were calculated from equations used to fit the data in this graphic software. Transactivation data are presented as EC50 and IC50 values for each compound tested. To analyze significances, we compared individual compound treatments with controls using one-way analysis of variance (ANOVA) with the help of GraphPad Prism software.

[2] = target: T2, human LXRβ (Homo sapiens, UniProt P55055); experiment: HG5LN GAL4-LXRβ reporter cell line, agonist mode; conditions: for LXRβ % max act: maximal luciferase activity at 10^-5 M (10^-6 M for * and 3 10^-6 M for ** compounds), 100% = 1 µM T0901317, DMSO 9 ± 2
T2 construct: LXRβ (G199-E461); expressed in transfected cells; host or cells: HG5LN (HeLa cells carrying the (GAL4RE)5-βGlob-Luc-SVNeo reporter)
T2 sequence (P55055 198-460 limits assumed): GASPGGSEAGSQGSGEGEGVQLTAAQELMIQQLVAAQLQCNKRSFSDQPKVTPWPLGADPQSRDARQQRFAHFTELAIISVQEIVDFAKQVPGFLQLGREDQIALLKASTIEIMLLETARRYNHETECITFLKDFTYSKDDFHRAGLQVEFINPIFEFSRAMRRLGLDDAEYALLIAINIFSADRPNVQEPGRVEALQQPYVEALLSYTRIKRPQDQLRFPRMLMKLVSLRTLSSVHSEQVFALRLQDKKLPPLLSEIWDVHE
Source text: as §1, §2, §3, §4, §5

[3] = target: T3, human LXRα (Homo sapiens, UniProt Q13133); experiment: HG5LN GAL4-LXRα reporter cell line, antagonist mode in presence of T0901317; conditions: for LXRα (T0901317 20 nM) % min act: in presence of T0901317 20 nM (80% of maximal activity), at 10^-5 M (10^-6 M *, 3 10^-6 M **)
T3 construct: LXRα (A187-E447); expressed in transfected cells; host or cells: HG5LN (HeLa cells carrying the (GAL4RE)5-βGlob-Luc-SVNeo reporter)
T3 sequence (Q13133 187-447): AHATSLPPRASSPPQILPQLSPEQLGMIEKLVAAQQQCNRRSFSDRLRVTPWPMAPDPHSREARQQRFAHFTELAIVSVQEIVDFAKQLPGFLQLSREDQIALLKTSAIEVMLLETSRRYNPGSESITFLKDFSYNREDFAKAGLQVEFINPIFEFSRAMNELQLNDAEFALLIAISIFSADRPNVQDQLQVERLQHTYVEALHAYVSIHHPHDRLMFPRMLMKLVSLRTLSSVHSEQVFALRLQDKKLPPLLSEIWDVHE
Source text: as §1, §2, §3, §4, §5

[4] = HG5LN GAL4-LXRβ cells, tested alone, NE = No effect, read-out: LXRβ EC50
[5] = read-out: LXRα (T0901317 20 nM) IC50, in presence of T0901317 20 nM, NE = No effect

| Compound | EC50 [1] [µM] | EC50 [2, 4] [µM] | IC50 [3, 5] [µM] | other results |
| --- | --- | --- | --- | --- |
| CCOC(=O)Nc1ccc2c(c1)N(C(=O)CN(CC)CC)c1ccccc1CC2 [CINPA1] | > 10 | > 10 | > 10 |  |
| Clc1ccc(-c2nc3sccn3c2/C=N/OCc2ccc(Cl)c(Cl)c2)cc1 [CITCO] | > 10 | > 10 | > 10 |  |
| Clc1ccccc1C(c1ccccc1)(c1ccccc1)n1ccnc1 [Clotrimazole, clotrimazole] |  | > 10 | > 10 |  |
| COc1cccc(Cn2cc(C(=O)Nc3ccc(C)c(S(=O)(=O)N4CCOCC4)c3)c(-c3ccc(C)cc3)n2)c1 [DY268] |  | > 10 | > 10 |  |
| CC(C)(C)c1nc(-c2cccc(NS(=O)(=O)c3c(F)cccc3F)c2F)c(-c2ccnc(N)n2)s1 [Dabrafenib] | > 10 | > 10 | > 10 |  |
| COC(=O)/C=C/c1cccc(N(Cc2ccc(-c3ccc(N(C)C)cc3)cc2)C(=O)C2CCCCC2)c1 [Feraxamine] | 0.612 ± 0.188 | > 10 | > 10 | FXR % max act ([1]; maximal luciferase activity at 10^-5 M (10^-6 M for * and 3 10^-6 M for ** compounds), 100% = 1 µM GW4064, DMSO 6 ± 1): 33% |
| Cc1cc(C)c(S(=O)(=O)N(Cc2ccc(-c3cccc(S(C)(=O)=O)c3)cc2)Cc2ccc(C(F)(F)F)o2)c(C)c1 [GSK2033] | > 10 |  |  | LXRα (T0901317 20 nM) % min act ([3]; NE = No effect): 2% |
| Cc1oc2ccccc2c1CNC(=O)NCc1cccs1 [S07662] | > 10 | > 10 | > 10 |  |
| O=C(Nc1ccc(C(O)(C(F)(F)F)C(F)(F)F)cc1)c1ccccc1Cl [SR0987] | > 10 | > 10 | > 10 |  |
| O=C(Nc1ccc(C(O)(C(F)(F)F)C(F)(F)F)cc1)c1ccc(C(F)(F)F)cc1 [SR1078] | > 10 | > 10 | > 10 |  |
| CCOC(=O)c1ccc(CN(Cc2ccc(-c3cccc(S(C)(=O)=O)c3)cc2)S(=O)(=O)c2c(C)cc(C)cc2C)o1 [SR9238] | > 10 |  |  | IC50 [3]: 0.026 ± 0.005 µM; LXRα (T0901317 20 nM) % min act ([3]; NE = No effect): 2% |
| Fc1ccc(-c2c3cccc(C(F)(F)F)c3nn2Cc2ccc(F)cc2Cl)cc1 [WAY252623] | > 10 |  |  | EC50 [2]: 0.321 ± 0.071 µM; LXRβ % max act ([2]; NE = No effect): 72% |
| SPA70 | > 10 | > 10 | > 10 |  |

Further lines, with some results ahead:

| EC50 [1] [µM] | EC50 [2, 4] [µM] | IC50 [3, 5] [µM] | Compound | other results |
| --- | --- | --- | --- | --- |
|  | 0.015 ± 0.006 |  | O=C(O)Cc1cccc(OCCCN(Cc2cccc(C(F)(F)F)c2Cl)CC(c2ccccc2)c2ccccc2)c1 [GW3965] | LXRβ specificity (fold, over LXRα) ([2]; from EC50 values on LXRα and LXRβ): 12 fold; LXRβ % max act ([2]; NE = No effect): 100% |
|  | > 10 | > 10 | CC(C)c1onc(-c2c(Cl)cccc2Cl)c1COc1ccc(/C=C/c2cccc(C(=O)O)c2)c(Cl)c1 [GW4064] |  |
| > 10 | > 10 | > 10 | CC(=O)Nc1nc(C)c(S(=O)(=O)Nc2ccc(C(O)(C(F)(F)F)C(F)(F)F)cc2)s1 [SR1001] |  |
| > 10 |  |  | Cc1cc(C)c(S(=O)(=O)N(CCc2cccc(Br)c2)Cc2ccc(-c3cccc(S(C)(=O)=O)c3)cc2)c(C)c1 [SR9243] | IC50 [3]: 0.56 ± 0.099 µM; LXRα (T0901317 20 nM) % min act ([3]; NE = No effect): 2% |
| > 10 | > 10 | > 10 | CCOP(=O)(OCC)C(=Cc1cc(C(C)(C)C)c(O)c(C(C)(C)C)c1)P(=O)(OCC)OCC [SR12813] |  |
